# Test results from article PMC5663395, “Chemical Validation of Methionyl-tRNA Synthetase as a Druggable Target in Leishmania donovani” (ACS Infectious Diseases, 2017).
# How the values were obtained:
# [1] = system: Leishmania donovani liver parasite burden; test: Mouse visceral leishmaniasis efficacy model; settings: 30 mg/kg oral once daily for 10 days
# THP-1 lysosomes = test: Lysosomotropism assay (LysoTracker Red competition); assay type: cell-based, human; settings: PMA-differentiated THP-1 cells, 30 min
# Description: calculated, both in terms of pEC50 values. MIC (minimum inhibitory concentration) values are defined as the lowest concentration tested at which maximal inhibition is reached.
# THP-1 cells were differentiated in 96-well plates with PMA as described above. Following differentiation the cells were treated for 30 min with dose-response curves of test compounds in presence of 100 nM LysoTracker Red DND-99 (Thermo Fisher) and 5 µg/ml Hoechst 33342. Next cells were washed 3 times with Hanks Buffered Saline Solution (Gibco) and imaged on a Perkin Elmer Operetta system. An image analysis algorithm to measure mean Lysotracker Red DND-99 intensity per cell was developed in Columbus. Mean Intensity was normalised using a no dye control (100% effect) and DMSO treated wells stained with Lysotracker Red DND-99 (0% effect control). Dose-response curves were fitted for the test compounds using a four-parameter equation (equation 5 above) and constrained to 0 and 100% where necessary.
# To measure the pKa of DDD806905, a fast UV-metric method was performed using a Sirius T3 instrument (Sirius Analytical, U.K.). The calculation of the pKa was determined using the Sirius T3 refine software (Sirius Analytical, U.K.). In brief, the UV-metric pKa method is based on measuring pH during an acid-base titration and monitoring UV absorbance shift. The ionisation curve (Bjerrum curve) was then used to determine the pH where exactly 50 % of neutral and 50 % of ionised species was present. DDD806905 must be fully dissolved throughout the titration and so the titration is set to start at the pH where DDD806905 is in its fully ionised state. The appearance of precipitate was monitored throughout the experiment by a turbidity sensing device. […] The pKas of DDD806905 was determined at the pH where there was maximal change in UV absorbance with respect to pH. […]
# LogD7.4 values were quantified using a Sirius T3 instrument (Sirius Analytical, U.K.). […] The instrument software calculated the pH of each data point using mass and charge balance equations and then fitted this theoretical data to the experimental data. […]
# LdMetRS = LdMetRS (Leishmania donovani, UniProt A0A3Q8IBX2); test: LdMetRS biochemical enzyme assay (BIOMOL Green); settings: Table 1; read-out: LdMetRS IC50
# LdMetRS, sequence (A0A3Q8IBX2 entry or part of it): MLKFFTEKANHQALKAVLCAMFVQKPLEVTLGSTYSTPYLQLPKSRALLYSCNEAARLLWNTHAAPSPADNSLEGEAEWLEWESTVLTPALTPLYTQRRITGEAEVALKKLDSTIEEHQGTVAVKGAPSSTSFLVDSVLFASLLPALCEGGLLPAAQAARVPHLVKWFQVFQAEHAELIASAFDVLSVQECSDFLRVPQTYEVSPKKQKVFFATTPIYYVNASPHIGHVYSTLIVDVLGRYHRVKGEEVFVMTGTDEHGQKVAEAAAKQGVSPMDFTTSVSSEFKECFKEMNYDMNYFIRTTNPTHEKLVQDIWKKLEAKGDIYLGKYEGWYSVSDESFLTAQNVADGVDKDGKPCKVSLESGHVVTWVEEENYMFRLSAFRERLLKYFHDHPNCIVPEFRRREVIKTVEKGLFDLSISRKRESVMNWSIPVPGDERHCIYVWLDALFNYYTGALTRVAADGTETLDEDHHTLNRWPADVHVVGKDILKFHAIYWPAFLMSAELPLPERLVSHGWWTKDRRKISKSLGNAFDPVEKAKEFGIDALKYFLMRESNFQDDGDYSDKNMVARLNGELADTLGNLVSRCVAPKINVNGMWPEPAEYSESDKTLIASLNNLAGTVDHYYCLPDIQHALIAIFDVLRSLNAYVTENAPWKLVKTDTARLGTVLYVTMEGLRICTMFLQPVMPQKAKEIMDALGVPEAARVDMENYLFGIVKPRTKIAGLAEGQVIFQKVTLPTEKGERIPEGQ
# Description: LdMetRS Assay Development and Kinetic Parameter Determinations
# Activity of the LdMetRS enzyme was determined by monitoring levels of pyrophosphate released during the first step of the enzymatic reaction. The pyrophosphate formed was converted to two inorganic phosphate molecules using a pyrophosphatase enzyme and levels of the resulting phosphate molecules measured using the BIOMOL® Green reagent (Enzo Life Sciences) 2.
# Following optimization of the assay buffer and determination of the enzyme linearity, 384-well plate based assays were carried out at room temperature in a 50 μl reaction volume containing 30 mM Tris, pH 8.0, 140 mM NaCl, 30 mM KCl, 40 mM MgCl2, 0.01% (v/v) Brij-35, 1 mM DTT, 1 U/ml pyrophosphatase, 50 nM recombinant LdMetRS, and varying concentrations of substrates. Michaelis constants for the ATP and methionine substrates were determined in an end point assay using the above buffer and enzyme conditions. Data were fitted to the modified Michaelis-Menten equations […]
# Equation 1 (Hill equation): […]
# Equation 2 (High substrate inhibition Michaelis-Menten equation): […]
# LdMetRS Inhibitor Studies
# All test compounds were solubilized in 100% DMSO to a concentration of 10 mM. To generate IC50 data for the compounds, assay ready plates containing 10-point inhibitor curves (half-log serial dilutions) were prepared using an Echo® 550 (Labcyte).
# Following preparation of the inhibitor curves, assays were carried out at room temperature in clear, flat bottom, polystyrene, 384-well plates (Greiner). Each assay was performed in a 50 μl reaction volume containing 30 mM Tris; pH 8.0, 140 mM NaCl, 30 mM KCl, 40 mM MgCl2, 0.01% (v/v) Brij-35, 1 mM DTT, 1 U/ml pyrophosphatase, 50 nM recombinant LdMetRS, 50 µM methionine and 100 µM […]
# Assays were performed by adding 25 μl buffer with enzyme to assay plates (with buffer only added to ‘no enzyme’ control wells) before the reaction was initiated with the addition of a 25 μl mix containing methionine, ATP and pyrophosphatase to all wells. Following a 120 min reaction at room temperature the assay was stopped with the addition of 50 μl BIOMOL® Green. The BIOMOL® Green signal was allowed to develop for 30 min before the absorbance of each well was read at 650 nm using an EnVision multilabel plate reader (PerkinElmer Life Sciences). All liquid dispensing steps were carried out using a Thermo Scientific WellMate dispenser (Matrix).
# ActivityBase from IDBS (version 8.0.5.4) was used for data processing and analysis. All IC50 curve fitting was undertaken using ActivityBase XE (version 7.7.1) from IDBS. A four-parameter logistic dose-response curve was utilized with prefit used for all four parameters.
# For DDD806905 Kiapp determinations, data fitting to the Morrison equation (equation 3) was carried out using GraFit v6.0 (Erithacus Software). It should be noted that data for fitting to the Morrison equation was normalised to a ‘100 µM DDD806905’ control rather than a ‘no enzyme’ control as […]
# Equation 3 (Morrison equation): […]
# vi = K1 −−([ ] [ ]ET+IT+Ki)−([ ] [ ]ET+IT+i)[ ] [ ]TIE4T
# LdMetRS Mode of Inhibition Studies
# To establish the mode of inhibition of DDD806905, data sets (generated using the BIOMOL® Green assay platform previously described) were collected by varying both the inhibitor and substrate concentrations. Using GraFit v6.0 (Erithacus Software) each data set was individually fitted to the Michaelis-Menten equation or the modified high substrate inhibition Michaelis-Menten equation described above (equation 2), and the resulting Lineweaver-Burk plots were examined for diagnostic […]
# Data sets were then globally fitted to the appropriate model (with equations 4 and 5 used for […]
# If more than one model appeared possible, then data were fitted to both and examined for significance using the F-test function in GraFit.
# [2] = system: L. donovani axenic amastigotes; test: Leishmania axenic amastigote viability assay; assay type: cell-based, Leishmania donovani; settings: Leishmania donovani; Table 1; read-out: Leishmania Axenic Amastigote EC50
# Description: carried out as described above using 5%, 10% and 20% FBS in the media. To examine the effect of the methionine concentration on the potency of DDD806905 parasites were grown in the presence of drug and in the presence (or absence) of 20-fold excess methionine (0.3 g/l). IC50 curve fitting was undertaken in GraFit version 6.0 (Erithacus Software) using a four-parameter logistic dose-response curve (equation 6), with s the slope.
# Leishmania Axenic Amastigote Assay
# The Leishmania axenic amastigote assay was performed using the method published in Nühs et al 15.
# Leishmania Intracellular Amastigote Assay
# The intramacrophage Leishmania assay was performed using a modified version of the method described in De Rycker et al 16. […]
# amphotericin B was included. Controls were as follows: columns 11 and 12: DMSO, columns 23 and 24: amphotericin B (final concentration 2 µM). 350 nl of compound was pre-dispensed into 384-well sterile intermediary plates. To the intermediary plates, 35 µl of THP-1 media was added and plates were shaken for >5 min to ensure complete mixing. THP-1 cells (8,000 per well, 50 µl) were plated into black clear-bottom 384-well plates (Corning) in presence of 20 nM phorbol 12-myristate 13- […]
# in a humidified incubator for 75 h. The cells were then washed with 450 µl sterile phosphate buffered saline (PBS) supplemented with 1 mM CaCl2, 0.5 mM MgCl2, 0.1% (w/v) bovine serum albumin (PBS-A) and amastigotes were added to all wells at a multiplicity of infection of 5 (40,000 amastigotes per well). After 40 min at room temperature, plates were returned to the incubator.
# Amastigotes were incubated in the presence of THP-1 macrophages for 16 h. Any remaining extracellular amastigotes were subsequently removed by washing with PBS-A followed by addition of 25 µl of the compound pre-dilutions using an Ipette-pro pipetting station (FluidX). The final dilution of each compound was 200-fold. Plates were incubated for 96 h and then washed (250 µl PBS-A) and fixed (4 % (v/v) formaldehyde-PBS, 30 min, room temperature). After fixation, the wells were washed with 250 µl PBS, stained (10 µg/ml DAPI, 0.4 µg/mL HCS Cellmask Deep Red in PBS + 0.1% (v/v) Triton X-100, 30 min, room temperature) and washed with 250 µl PBS. Finally, PBS + 0.05% (v/v) thimerosal was added to the wells, the plates were sealed and imaged on a high-content microscope (GE IN Cell 2000) using a 10x objective. Image analysis was carried out with GE IN Cell Analyzer 1000 Workstation using the “Multi Target Analysis” module. For each well, i) THP-1 cell count (cytotoxicity readout) and ii) average number of amastigotes per cell (potency readout) were […]
IC50 (LdMetRS) [µM],EC50 [2] [µM],Compound,reduction (knock-down) of liver parasite burden (LDU) vs vehicle [1] [%],competition with lysotracker red accumulation in THP-1 lysosomes (THP-1 lysosomes)
–,–,"CCCCCCCCCCCCCCCCOP(=O)([O-])OCC[N+](C)(C)C [miltefosine, reference compound]",99.6,–
1.9,19,O=c1nc(NCCCNS(=O)(=O)c2cc(Cl)cc(Cl)c2)[nH]c2ccccc12 [Compound 28],–,does not compete with lysotracker red
